Patent publication US9884818B2, “Sulphamoylpyrrolamide derivatives and the use thereof as medicaments for the treatment of hepatitis B” (Janssen Sciences Ireland UC, priority 2013, dated 2018)

Key:
HBV [1] = assay: Anti-HBV activity, HepG2.2.15 stable transfected cell line, HBV DNA from secreted virions by realtime PCR; assay type: cell-based; settings: Hepatitis B virus, HepG2.2.15, 144 h
HBV [2] = assay: Anti-HBV activity, HepG2.117 inducibly HBV producing cell line (Tet-off), intracellular HBV DNA by realtime PCR; assay type: cell-based; settings: Hepatitis B virus, HepG2.117, 72 h
[3] = Cytotoxicity in HepG2 cells, Resazurin viability assay; settings: human
[4] = HepG2.2.15 cells, 6 days of treatment, HBV DNA from secreted virions, read-out: HepG2 2.15 EC50
[5] = HepG2.117 cells, 3 days of treatment, intracellular HBV DNA, read-out: HepG2 117 EC50
[6] = HepG2 cells, HepG2 4 days CC50 (μM), incubated for 4 days, Resazurin assay

Q: Which EC50 (HBV [1]; [4]) does the source give for `COC(=O)C(C)(C)NS(=O)(=O)c1cc(C(=O)Nc2ccc(F)c(C)c2)n(C)c1` [Compound 49, methyl 2-[[5-[(4-fluoro-3-methyl-phenyl)carbamoyl]-1-methyl-pyrrol-3-yl]sulfonylamino]-2-methyl-propanoate] here?
A: 0.07 µM

Q: And the EC50 (HBV [2]; [5])?
A: 0.02 µM

Q: What about the CC50 at 4 days [3, 6] of the same compound?
A: > 25 µM

Q: Which EC50 (HBV [1]; [4]) does the source give for `Cn1cc(S(=O)(=O)NC2(C)COC2)cc1C(=O)Nc1ccc(F)c(C#N)c1` [Compound 50, N-(3-cyano-4-fluorophenyl)-1-methyl-4-[(3-methyloxetan-3-yl)sulfamoyl]-1H-pyrrole-2-carboxamide] here?
A: 0.07 µM

Q: What about the EC50 (HBV [2]; [5]) of the same compound?
A: 0.05 µM

Q: What about the CC50 at 4 days [3, 6] of the same compound?
A: > 25 µM

Q: For `Cn1cc(S(=O)(=O)NC2(C)COC2)cc1C(=O)Nc1ccc(C#N)c(C(F)(F)F)c1` [Compound 51, N-[4-cyano-3-(trifluoromethyl)phenyl]-1-methyl-4-[(3-methyloxetan-3-yl)-sulfamoyl]-1H-pyrrole-2-carboxamide], which EC50 (HBV [1]; read-out: HepG2 2.15 EC50 (μM)) is on record?
A: > 1 µM

Q: What about the EC50 (HBV [2]; read-out: HepG2 117 EC50 (μM)) of the same compound?
A: > 1 µM

Q: What about the CC50 at 4 days [3] of the same compound?
A: > 25 µM

Q: With `CC(C)NS(=O)(=O)c1cc(C(=O)Nc2cc(F)c(F)c(C#N)c2)n(C)c1` [Compound 52, N-(3-cyano-4,5-difluoro-phenyl)-4-(isopropylsulfamoyl)-1-methyl-pyrrole-2-carboxamide] as the compound, how does the EC50 (HBV [1]; [4]) read?
A: 0.26 µM

Q: And the EC50 (HBV [2]; [5])?
A: 0.33 µM

Q: And the CC50 at 4 days [3, 6]?
A: > 25 µM

Q: What does the source list for `Cn1cc(S(=O)(=O)NC(C)(C)C)cc1C(=O)Nc1cc(F)cc(C#N)c1` [Compound 53, 4-(tert-butylsulfamoyl)-N-(3-cyano-5-fluoro-phenyl)-1-methyl-pyrrole-2-carboxamide]?
A: EC50 (HBV [1]; [4]): 0.26 µM; EC50 (HBV [2]; [5]): 0.18 µM; CC50 at 4 days [3, 6]: > 25 µM

Q: For `Cn1cc(S(=O)(=O)NC2(C)COC2)cc1C(=O)Nc1cc(F)cc(C#N)c1` [Compound 54, N-(3-cyano-5-fluoro-phenyl)-1-methyl-4-[(3-methyloxetan-3-yl)-sulfamoyl]pyrrole-2-carboxamide], which EC50 (HBV [1]; [4]) is on record?
A: 0.2 µM

Q: What about the EC50 (HBV [2]; [5]) of the same compound?
A: 0.25 µM

Q: What about the CC50 at 4 days [3, 6] of the same compound?
A: > 25 µM

Q: With `Cn1cc(S(=O)(=O)NC2(C)COC2)cc1C(=O)Nc1cccc(C#N)c1` [Compound 55, N-(3-cyanophenyl)-1-methyl-4-[(3-methyloxetan-3-yl)sulfamoyl]pyrrole-2-carboxamide] as the compound, how does the EC50 (HBV [1]; [4]) read?
A: 0.21 µM

Q: And the EC50 (HBV [2]; [5])?
A: 0.11 µM

Q: And the CC50 at 4 days [3, 6]?
A: > 25 µM

Q: With `[2H]c1cc(F)c(C)c([2H])c1NC(=O)c1cc(S(=O)(=O)NC2(C)COC2)cn1C` [Compound 56, N-(2,6-dideuterio-4-fluoro-3-methyl-phenyl)-1-methyl-4-[(3-methyloxetan-3-yl)sulfamoyl]pyrrole-2-carboxamide] as the compound, how does the EC50 (HBV [1]; [4]) read?
A: 0.02 µM

Q: What about the EC50 (HBV [2]; [5]) of the same compound?
A: < 0.02 µM

Q: What about the CC50 at 4 days [3, 6] of the same compound?
A: > 25 µM

Q: For `CC(C)NS(=O)(=O)c1cc(C(=O)Nc2cc(F)c(F)c(Cl)c2)n(C)c1` [Compound 57, N-(3-chloro-4,5-difluoro-phenyl)-4-(isopropylsulfamoyl)-1-methyl-pyrrole-2-carboxamide], which EC50 (HBV [1]; [4]) is on record?
A: 0.06 µM

Q: What about the EC50 (HBV [2]; [5]) of the same compound?
A: 0.05 µM

Q: What about the CC50 at 4 days [3, 6] of the same compound?
A: > 25 µM

Q: For `Cn1cc(S(=O)(=O)NC(C)(C)C)cc1C(=O)Nc1cc(F)c(F)c(Cl)c1` [Compound 58, 4-(tert-butylsulfamoyl)-N-(3-chloro-4,5-difluoro-phenyl)-1-methyl-pyrrole-2-carboxamide], which EC50 (HBV [1]; [4]) is on record?
A: 0.09 µM

Q: What about the EC50 (HBV [2]; [5]) of the same compound?
A: 0.06 µM

Q: And the CC50 at 4 days [3, 6]?
A: > 25 µM

Q: Which EC50 (HBV [1]; [4]) does the source give for `Cn1cc(S(=O)(=O)NC2(C)COC2)cc1C(=O)Nc1cc(F)c(F)c(Cl)c1` [Compound 59, N-(3-chloro-4,5-difluoro-phenyl)-1-methyl-4-[(3-methyloxetan-3-yl)-sulfamoyl]pyrrole-2-carboxamide] here?
A: 0.03 µM

Q: What about the EC50 (HBV [2]; [5]) of the same compound?
A: 0.03 µM

Q: And the CC50 at 4 days [3, 6]?
A: > 25 µM

Q: Which results are given for `C[C@@H](NS(=O)(=O)c1cc(C(=O)Nc2cc(F)c(F)c(Cl)c2)n(C)c1)C(F)(F)F` [Compound 60, N-(3-chloro-4,5-difluoro-phenyl)-1-methyl-4-[[(1R)-2,2,2-trifluoro-1-methyl-ethyl]sulfamoyl]pyrrole-2-carboxamide]?
A: EC50 (HBV [1]; [4]): 0.02 µM; EC50 (HBV [2]; [5]): 0.03 µM; CC50 at 4 days [3, 6]: 24.1 µM

Q: For `CNC(=O)C(C)(C)NS(=O)(=O)c1cc(C(=O)Nc2ccc(F)c(C)c2)n(C)c1` [Compound 62, 4-[[1,1-dimethyl-2-(methylamino)-2-oxo-ethyl]sulfamoyl]-N-(4-fluoro-3-methyl-phenyl)-1-methyl-pyrrole-2-carboxamide], which EC50 (HBV [1]; [4]) is on record?
A: 0.27 µM

Q: And the EC50 (HBV [2]; [5])?
A: 0.14 µM

Q: And the CC50 at 4 days [3, 6]?
A: > 25 µM

Q: What does the source list for `Cc1cc(NC(=O)c2cc(S(=O)(=O)NC(C)(C)C(=O)N(C)C)cn2C)ccc1F` [Compound 63, 4-[[2-(dimethylamino)-1,1-dimethyl-2-oxo-ethyl]sulfamoyl]-N-(4-fluoro-3-methyl-phenyl)-1-methyl-pyrrole-2-carboxamide]?
A: EC50 (HBV [1]; [4]): 0.06 µM; EC50 (HBV [2]; [5]): 0.04 µM; CC50 at 4 days [3, 6]: > 25 µM

Q: What does the source list for `Cc1cc(NC(=O)c2cc(S(=O)(=O)NC(C)(C)C(N)=O)cn2C)ccc1F` [Compound 64, 4-[(2-amino-1,1-dimethyl-2-oxo-ethyl)sulfamoyl]-N-(4-fluoro-3-methyl-phenyl)-1-methyl-pyrrole-2-carboxamide]?
A: EC50 (HBV [1]; [4]): 0.13 µM; EC50 (HBV [2]; [5]): 0.05 µM; CC50 at 4 days [3, 6]: > 25 µM

Q: With `Cn1cc(S(=O)(=O)NC2(C)CC(F)(F)C2)cc1C(=O)Nc1cc(F)c(F)c(Cl)c1` [Compound 65, N-(3-chloro-4,5-difluoro-phenyl)-4-[(3,3-difluoro-1-methyl-cyclo-butyl)sulfamoyl]-1-methyl-pyrrole-2-carboxamide] as the compound, how does the EC50 (HBV [1]; [4]) read?
A: 0.01 µM

Q: What about the EC50 (HBV [2]; [5]) of the same compound?
A: 0.01 µM

Q: And the CC50 at 4 days [3, 6]?
A: > 25 µM

Q: With `CCC(C)(C)NS(=O)(=O)c1cc(C(=O)Nc2cc(F)c(F)c(Cl)c2)n(C)c1` [Compound 66, N-(3-chloro-4,5-difluoro-phenyl)-4-(1,1-dimethylpropylsulfamoyl)-1-methyl-pyrrole-2-carboxamide] as the compound, how does the EC50 (HBV [1]; [4]) read?
A: 0.03 µM

Q: What about the EC50 (HBV [2]; [5]) of the same compound?
A: 0.03 µM

Q: What about the CC50 at 4 days [3, 6] of the same compound?
A: > 25 µM

Q: Which EC50 (HBV [1]; [4]) does the source give for `[2H]c1cc(F)c(C)c([2H])c1NC(=O)c1cc(S(=O)(=O)NC(C)(C)C)cn1C` [Compound 67, 4-(tert-butylsulfamoyl)-N-(2,6-dideuterio-4-fluoro-3-methyl-phenyl)-1-methyl-pyrrole-2-carboxamide] here?
A: 0.02 µM

Q: What about the EC50 (HBV [2]; [5]) of the same compound?
A: 0.03 µM

Q: And the CC50 at 4 days [3, 6]?
A: > 25 µM

Q: Which EC50 (HBV [1]; [4]) does the source give for `Cn1cc(S(=O)(=O)NC(C)(C)C)cc1C(=O)Nc1cc(F)c(F)c(F)c1` [Compound 68, 4-(tert-butylsulfamoyl)-1-methyl-N-(3,4,5-trifluorophenyl)pyrrole-2-carboxamide] here?
A: 0.07 µM

Q: And the EC50 (HBV [2]; [5])?
A: 0.07 µM

Q: What about the CC50 at 4 days [3, 6] of the same compound?
A: > 25 µM

Q: For `[2H]C([2H])([2H])C(NS(=O)(=O)c1cc(C(=O)Nc2ccc(F)c(C)c2)n(C)c1)(C([2H])([2H])[2H])C([2H])([2H])[2H]` [Compound 69, N-(4-fluoro-3-methyl-phenyl)-1-methyl-4-[[2,2,2-trideuterio-1,1-bis(trideuteriomethyl)ethyl]sulfamoyl]pyrrole-2-carboxamide], which EC50 (HBV [1]; [4]) is on record?
A: 0.03 µM

Q: And the EC50 (HBV [2]; [5])?
A: 0.07 µM

Q: What about the CC50 at 4 days [3, 6] of the same compound?
A: > 25 µM

Q: What does the source list for `[2H]c1cc(F)c(C)c([2H])c1NC(=O)c1cc(S(=O)(=O)NC(C([2H])([2H])[2H])(C([2H])([2H])[2H])C([2H])([2H])[2H])cn1C` [Compound 70, N-(2,6-dideuterio-4-fluoro-3-methyl-phenyl)-1-methyl-4-[[2,2,2-trideuterio-1,1-bis(trideuteriomethyl)ethyl]sulfamoyl]pyrrole-2-carboxamide]?
A: EC50 (HBV [1]; [4]): 0.02 µM; EC50 (HBV [2]; [5]): 0.04 µM; CC50 at 4 days [3, 6]: > 25 µM

Q: Which results are given for `[2H]c1c(F)c(F)c(F)c([2H])c1NC(=O)c1cc(S(=O)(=O)NC(C)(C)C)cn1C` [Compound 71, 4-(tert-butylsulfamoyl)-N-(2,6-dideuterio-3,4,5-trifluoro-phenyl)-1-methyl-pyrrole-2-carboxamide]?
A: EC50 (HBV [1]; [4]): 0.1 µM; EC50 (HBV [2]; [5]): 0.13 µM; CC50 at 4 days [3, 6]: > 25 µM

Q: Which EC50 (HBV [1]; [4]) does the source give for `Cn1cc(S(=O)(=O)NC2(C(F)(F)F)CC2)cc1C(=O)Nc1cc(F)c(F)c(Cl)c1` [Compound 72, N-(3-chloro-4,5-difluoro-phenyl)-1-methyl-4-[[1-(trifluoromethyl)-cyclopropyl]sulfamoyl]pyrrole-2-carboxamide] here?
A: 0.01 µM

Q: And the EC50 (HBV [2]; [5])?
A: 0.01 µM

Q: What about the CC50 at 4 days [3, 6] of the same compound?
A: > 25 µM

Q: For `Cn1cc(S(=O)(=O)NC2(C)COC2)c(F)c1C(=O)Nc1ccc(F)c(F)c1` [Compound 74, N-(3,4-difluorophenyl)-3-fluoro-1-methyl-4-[(3-methyloxetan-3-yl)-sulfamoyl]pyrrole-2-carboxamide], which EC50 (HBV [1]; [4]) is on record?
A: 0.02 µM

Q: And the EC50 (HBV [2]; [5])?
A: 0.02 µM

Q: What about the CC50 at 4 days [3, 6] of the same compound?
A: > 25 µM

Q: Which results are given for `Cn1cc(S(=O)(=O)NC2(C)COC2)cc1C(=O)Nc1cc(Cl)c(F)c(Cl)c1` [Compound 75, N-(3,5-Dichloro-4-fluorophenyl)-1-methyl-4-[(3-methyloxetan-3-yl)sulfamoyl]-1H-pyrrole-2-carboxamide]?
A: EC50 (HBV [1]; [4]): 0.18 µM; EC50 (HBV [2]; [5]): 0.18 µM; CC50 at 4 days [3, 6]: > 25 µM

Q: Which EC50 (HBV [1]; [4]) does the source give for `Cn1cc(S(=O)(=O)NC(C)(C)C)cc1C(=O)Nc1cc(Cl)c(F)c(Cl)c1` [Compound 76, 4-(tert-Butylsulfamoyl)-N-(3,5-dichloro-4-fluorophenyl)-1-methyl-1H-pyrrole-2-carboxamide] here?
A: 0.18 µM

Q: And the EC50 (HBV [2]; [5])?
A: 0.13 µM

Q: What about the CC50 at 4 days [3, 6] of the same compound?
A: > 25 µM

Q: With `Cc1cc(NC(=O)c2cc(S(=O)(=O)NC3(C)COC3)cn2C)ccc1Cl` [Compound 77, N-(4-Chloro-3-methylphenyl)-1-methyl-4-[(3-methyloxetan-3-yl)sulfamoyl]-1H-pyrrole-2-carboxamide] as the compound, how does the EC50 (HBV [1]; [4]) read?
A: 0.07 µM

Q: What about the EC50 (HBV [2]; [5]) of the same compound?
A: 0.18 µM

Q: And the CC50 at 4 days [3, 6]?
A: > 25 µM

Q: With `Cn1cc(S(=O)(=O)NC2(C)COC2)cc1C(=O)Nc1ccc(F)c(Cl)c1` [Compound 78, N-(3-Chloro-4-fluorophenyl)-1-methyl-4-[(3-methyloxetan-3-yl)sulfamoyl]-1H-pyrrole-2-carboxamide] as the compound, how does the EC50 (HBV [1]; [4]) read?
A: 0.02 µM

Q: What about the EC50 (HBV [2]; [5]) of the same compound?
A: 0.03 µM

Q: And the CC50 at 4 days [3, 6]?
A: > 25 µM
